Results on 2 compounds are retold here after PubChem BioAssay AID504629 (National Center for Advancing Translational Sciences (NCATS), 2011).

In this data set the test system is Caco-2 monolayer permeability, A-to-B, LC-MS/MS. In words: Inhibitors of HPGD: Caco-2 Cell Permeability Profiling. As to conditions: stronger effect = higher value. The text has this: Human 15-Hydroxyprostaglandin dehydrogenase (HPGD) catalyzes the inactivation of prostaglandin E2, and plays a major role in cancer biology by antagonizing the oncogenic potential of cyclooxygenase type 2 (COX2). Assays are available, based on absorbance/fluorescence increase of NADH with the substrate 15-OH prostaglandin E2. This bioassays provides profiling data on Caco-2 cell permeability of leads compounds developed for the HPGD project. This in vitro model is often predictive of in vivo absorption of the compound across the intestinal lining by using a Caco2-cell line and measuring the compound's rate of transport […]. NIH Chemical Genomics Center [NCGC] Structural Genomics Consortium [SGC]
1. Buffer Preparation: Prepare 1M HEPES: add 23.83g HEPES to 100ml of 0.85% NaCl Prepare HBSS+ buffer: add 12.8ml of 1M HEPES in 0.85% NaCl to 500ml HBSS buffer. 2. Take out the compounds from -80 degrees C, ultrasonicate or pre-warm for a few minutes to thaw the compounds. 3. […] The T0, LY and T90, LY plates are read by FlexStation 3 at excitation of 485 nm and emission of 535 nm to determine LY permeability. […]
(Caco-2 cells form a polarised layer with tight junctions and transporters.)

`Cc1cc(-c2nnc3n2CCCCC3)c(C)n1-c1ccccc1`: the permeability Papp was 21 10^-6 cm/s.

On to `Cc1cccc(-n2cnc3cc(C(=O)N4CCCCC4)ccc32)c1`, for which the permeability Papp was 15 10^-6 cm/s.
